Data on two compounds can be found in US20230174608A1, “Polypeptide Derivative Having Dual Receptor Agonistic Action and Use Thereof” (TIANJIN INSTITUTE OF PHARMACEUTICAL RESEARCH CO., LTD., priority 2020, published 2023).

Marks after values point to notes of the source that are not given here. Where a SMILES comes first, the peptide text is derived from it.

One assay concerns the target T1, GLP-1R (Homo sapiens, UniProt P43220).
T1 construct: expressed in transfected cells
As to the kind of experiment: GLP-1 receptor-mediated cAMP production in vitro. The assay is classed as cell-based. The conditions noted are these: HEK293 cell line stably expressing GLP-1R. The gist of the method:
(§1)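 HEK293 cells stably expressing human GLP-1R or GCGR are stimulated with compound for 30 min in the dark in serum-free medium with 0.5 mM IBMX, with test dilutions spanning 1 μM down to 10^−3 nM. cAMP is detected after a 60 min room-temperature reaction as the 665/615 nm ratio.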
On the technique in general: Cyclic AMP is a second messenger, typically raised through Gs and lowered through Gi signalling.

Another assay deals with T2, GCGR (Homo sapiens, UniProt P47871).
T2 construct: expressed in transfected cells
Description: GC receptor-mediated cAMP production in vitro. The assay is classed as cell-based. The settings on record: HEK293 cell line stably expressing GCGR. The gist of the method:
as §1

For assay [1], the system named is glucose loaded normal mice. Description: Glucose loading test on normal mice after single administration. The assay is classed as in vivo, Kunming mice. The settings on record: for Blood glucose reduction rate (%): after glucose loading, versus model control group; for Blood glucose level after glucose loading: glucose 2.5 g/kg intragastric 60 min after administration, measured 30 min after loading; for Blood glucose level after glucose loading / Fasting blood glucose level: n=5; for Fasting blood glucose level: normal mice fasted 6 h, 30 nmol/kg group. Here is the method: The hypoglycemic action of each compound of Example 1 was assessed by a glucose loading test on normal mice after single administration.
Method: Kunming mice (male, with a weight of 20-22 g) were acclimated in a barrier environment animal room for 3 days, divided into a blank control group, a model control group, a positive control group, and test compound groups, 5 mice in each group, and fasted for 6 h. Saline was administered to each mouse in the blank control group and the model control group, the compounds and a positive control drug were respectively administered to each mouse in the test compound groups and the positive control group at a dose of 30 nmol/kg, and the positive control drug was semaglutide. 60 min after administration, glucose was intragastrically administered to each mouse in the model control group, the positive control group, and the test compound groups at a dose of 2.5 g/kg (0.01 mL·g^−1 weight), distilled water was administered to each mouse in the blank control group, and blood glucose levels were determined 30 min after glucose loading.

For assay [2], the system named is diet-induced obesity (DIO) mice. As to the kind of experiment: Obese (DIO) model mice, 23 days of successive administration. Format: in vivo, C57BL/6J Gpt mice. The settings on record: for Fasting blood glucose (mmol/L) before the last administration: fasted 16 h; for Fasting blood glucose (mmol/L) before the last administration / TC (total cholesterol) / TG (triglycerides): n=5; for Weight decreasing rate: 30 nmol/kg s.c. every day, without fasting before the last administration compared to day 1; for Examination of liver pathological section: HE stain, 2 animals; for TC (total cholesterol) / TG (triglycerides): after 23 days of administration. An excerpt: C57BL/6J Gpt mice (purchased from GemPharmatech (Jiangsu) Co., Ltd.) (6-8-week-old) were fed with H10060 high-fat diet (purchased from Beijing HFK Bioscience Co., Ltd.) to obtain diet-induced obesity (DIO) models, mice in a blank control group (n=5) were fed with standard diets, and all the mice were fed for 11 weeks after being purchased. One day before the first administration, the mice in the model group were randomly divided into 5 groups according to their weights (within a range of 39.5-49.5 g), i.e., a model control group, a positive control group, and test compound groups (dgc005, dgc016, and dgc020), respectively, 5 mice in each group, which were administered every day by subcutaneous injection. Saline was subcutaneously injected in the blank control group and the model control group every day. The administration was performed for 23 days. The positive control drug and the test compounds were administered at a dose of 30 nmol/kg, and the administration volume for each group was 0.005 mL/g weight. The mice were weighed before each administration, and 72-h food intake was weighed every three days. The mice fasted for 16 h before the last administration, fasting blood glucose levels were determined, blood was sampled from the orbital venous plexus to determine triglycerides and total cholesterol, and the liver was taken out for pathological section observation.
The liver of each C576L/6 mouse in the groups was fixed with 12% formaldehyde and prepared into a specimen, and the tissue block was repaired, dehydrated with graded alcohol, embedded in paraffin, stained with HE, and examined under a light microscope.

Assay [3] shares this test system. As to the kind of experiment: DIO mice, weight and blood glucose after multiple administrations at different doses. The settings on record: for Fasting blood glucose (mmol/L) before the last administration / Blood glucose level (mmol/L) 0.5 h after glucose loading / Glycemic load reduction rate: Day 22; for Fasting blood glucose (mmol/L) before the last administration: fasted 16 h; for Blood glucose level (mmol/L) 0.5 h after glucose loading: glucose 1 g/kg intragastric 30 min after administration; for Glycemic load reduction rate: versus model control group; for Reduction rate of weight without fasting on day 21 compared to day 0: n=5. Format: in vivo, C57BL/6N mice. An excerpt:
40 C57BL/6N mice were purchased from Beijing Vital River Laboratory Animal Technology Co., Ltd. Mice in a model group (n=35) were fed with H10060 high-fat diets to obtain diet-induced obesity (DIO) models, mice in a blank control group (n=5) were fed with standard diets, and all the mice were fed for 36 weeks. On the day of the first administration, the mice in the model group were randomly divided into 7 groups according to their weights (within a range of 45-60 g), i.e., a model control group, positive control groups (semaglutide at doses of 10 nmol/kg and 30 nmol/kg, respectively), and test compound groups (dgc005 and dgc016 at doses of 10 nmol/kg and 30 nmol/kg, respectively), 5 mice in each group. The positive control drug and the test compounds were respectively subcutaneously injected into each mouse in the positive control groups and the test compound groups every day, saline was subcutaneously injected into each mouse in the blank control group and the model control group, and the administration was performed for 22 days (the administration volume for each group was 0.005 mL/g weight). The mice were weighed before each administration, and 72-h food intake was weighed every three days. The mice fasted for 16 h before the last administration, and 30 min after administration, a glucose solution (1 g/kg, the administration volume was 0.01 mL/g weight) was intragastrically administered to each mouse for glucose tolerance test. Blood glucose levels were determined 0.5 h after glucose loading.

Assay [4] has the same test system. Description: DIO model mice, weight after 2 weeks of administration. The assay is classed as in vivo, C57BL/6N mice. The settings on record: 30 nmol/kg s.c. once a day, 14 days. An excerpt: Method: C57BL/6N mice were fed with H10060 high-fat diets to obtain diet-induced obesity (DIO) models, and mice in a control group (n=5) were fed with standard diets. One day before the first administration, the mice in the model group were randomly divided into 6 groups according to their weights (within a range of 40.5-50.5 g), i.e., a model control group, a positive control group, and test compound groups (dgc003, dgc004, dgc010, and dgc017), respectively, 5 mice in each group, which were administered once a day by subcutaneous injection. Saline was subcutaneously injected into each mouse in the blank control group and the model control group every day. The administration was performed for 14 days. The positive control drug and the test compounds were administered at a dose of 30 nmol/kg, and the administration volume for each group was 0.005 mL/g weight. The mice were weighed before each administration, and 72-h food intake was weighed every three days.

Setting [5] is: day 4 of administration, 30 nmol/kg s.c. daily.
Where [6] appears, read: day 7 of administration, 30 nmol/kg s.c. daily.
Where [7] appears, read: day 10 of administration, 30 nmol/kg s.c. daily.
[8] abbreviates: day 13 of administration, 30 nmol/kg s.c. daily.

T2 sequence (P47871 26-477, species assumed): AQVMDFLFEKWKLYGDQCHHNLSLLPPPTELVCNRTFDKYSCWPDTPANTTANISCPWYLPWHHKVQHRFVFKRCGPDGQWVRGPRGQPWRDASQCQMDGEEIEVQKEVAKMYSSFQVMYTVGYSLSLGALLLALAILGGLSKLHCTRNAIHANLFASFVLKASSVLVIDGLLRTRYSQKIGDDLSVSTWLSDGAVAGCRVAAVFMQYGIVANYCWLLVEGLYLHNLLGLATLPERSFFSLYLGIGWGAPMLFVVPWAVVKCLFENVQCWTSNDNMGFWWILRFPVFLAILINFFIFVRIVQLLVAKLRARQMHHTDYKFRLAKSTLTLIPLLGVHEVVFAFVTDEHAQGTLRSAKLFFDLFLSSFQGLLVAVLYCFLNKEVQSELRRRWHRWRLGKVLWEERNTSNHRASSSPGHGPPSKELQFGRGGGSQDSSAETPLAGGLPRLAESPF
T1 sequence (P43220 24-463, species assumed): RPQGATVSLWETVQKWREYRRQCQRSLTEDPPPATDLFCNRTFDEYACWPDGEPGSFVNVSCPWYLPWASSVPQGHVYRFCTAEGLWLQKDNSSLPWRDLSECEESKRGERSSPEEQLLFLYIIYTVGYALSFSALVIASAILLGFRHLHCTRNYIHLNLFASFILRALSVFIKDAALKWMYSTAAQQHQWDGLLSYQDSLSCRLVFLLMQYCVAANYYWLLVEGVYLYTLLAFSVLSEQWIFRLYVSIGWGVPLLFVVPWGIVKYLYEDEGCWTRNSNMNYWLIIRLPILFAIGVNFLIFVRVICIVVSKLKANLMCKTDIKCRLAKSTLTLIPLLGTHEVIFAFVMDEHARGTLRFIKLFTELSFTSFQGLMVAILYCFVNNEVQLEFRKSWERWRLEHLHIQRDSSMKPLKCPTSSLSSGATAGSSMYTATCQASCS

As for `CCCCCCCCCCCCCCCC(=O)N[C@@H](CCC(=O)N[C@@H](CCC(=O)NCCCC[C@H](NC(=O)[C@H](C)NC(=O)[C@H](C)NC(=O)[C@H](CCCNC(=N)N)NC(=O)[C@H](CCC(=O)O)NC(=O)[C@H](CCC(=O)O)NC(=O)[C@H](CC(C)C)NC(=O)[C@H](Cc1ccc(O)cc1)NC(=O)[C@H](CCCCN)NC(=O)[C@H](CO)NC(=O)[C@H](Cc1ccc(O)cc1)NC(=O)[C@H](CC(=O)O)NC(=O)[C@H](CO)NC(=O)[C@@H](NC(=O)[C@H](Cc1ccccc1)NC(=O)[C@@H](NC(=O)CNC(=O)[C@H](CCC(N)=O)NC(=O)C(C)(C)NC(=O)[C@@H](N)Cc1c[nH]cn1)[C@@H](C)O)[C@@H](C)O)C(=O)N[C@@H](CCC(=O)O)C(=O)N[C@@H](Cc1ccccc1)C(=O)N[C@H](C(=O)N[C@@H](C)C(=O)N[C@@H](Cc1c[nH]c2ccccc12)C(=O)N[C@@H](CC(C)C)C(=O)N[C@@H](CCC(=O)O)C(=O)NCC(=O)NCC(N)=O)[C@@H](C)CC)C(=O)O)C(=O)O` [dgc016] (HELM PEPTIDE1{H.[Aib].Q.G.T.F.T.S.D.Y.S.K.Y.L.E.E.R.A.A.K.E.F.I.A.W.L.E.G.G.[am]}|PEPTIDE2{[CCCCCCCCCCCCCCCC(=O)[*:2]].[gGlu].[gGlu]}$PEPTIDE1,PEPTIDE2,20:R3-3:R2$$$V2.0; N-terminus assumed), the EC50 on GLP-1R was 1.23 nM; at GCGR, 0.342 nM. In addition, in assay [1] (30 nmol/kg single dose), the “Blood glucose reduction rate (%)” value is 59.88%. The “Blood glucose level after glucose loading” value in assay [1] (30 nmol/kg single dose) is reported as 6.82 ± 1.78**^ mmol/L. Moreover, the “Inhibition of the rise of blood glucose after glucose loading (in words)” value in assay [1] (30 nmol/kg single dose, normal mice) is “equivalent to that of the positive control drug”. Further, the “Fasting blood glucose level” value in assay [1] came to 3.66 ± 0.77 mmol/L. Further, the “Fasting blood glucose (mmol/L) before the last administration” value in assay [2] (30 nmol/kg s.c. daily, 23 days) worked out at 4.18 ± 0.40 mmol/L; in assay [3] (10 nmol/kg s.c. daily) it was 4.68 ± 2.12 mmol/L; in assay [3] (30 nmol/kg s.c. daily), 5.02 ± 2.34 mmol/L. Further, in assay [2], the Weight decreasing rate is 29.3%. The “Effect on triglycerides (in words)” value in assay [2] (23 days, 30 nmol/kg s.c. daily) is “has a triglyceride reduction action”. Further, the “Examination of liver pathological section” value in assay [2] (23 days, 30 nmol/kg s.c. daily) is “no obvious pathological changes are seen in portal areas and interstitium”. In addition, the “TC (total cholesterol)” value in assay [2] (30 nmol/kg s.c. daily) was 3.32 ± 0.73 ^ mmol/L. Besides, the “TG (triglycerides)” value in assay [2] (30 nmol/kg s.c. daily) is reported as 0.75 ± 0.10**^ΔΔ mmol/L. In addition, the 72-h food intake in assay [2] (setting [5]) came out at 3.30 g/mouse; in assay [2] (setting [6]) it was 4.80 g/mouse; in assay [2] (setting [7]) it was 6.10 g/mouse; in assay [2] (setting [8]), 5.70 g/mouse. The “Blood glucose level (mmol/L) 0.5 h after glucose loading” value in assay [3] (10 nmol/kg s.c. daily) is reported as 7.12 ± 0.61**^Δ mmol/L; in assay [3] (30 nmol/kg s.c. daily), 7.48 ± 0.78 mmol/L. Further, the figures for the “Glycemic load reduction rate” value in assay [3] (10 nmol/kg s.c. daily) and in assay [3] (30 nmol/kg s.c. daily) were 32.32 and 28.90, respectively. Further, the “Reduction rate of weight without fasting on day 21 compared to day 0” value worked out at 17.56% in assay [3] (10 nmol/kg s.c. every day) and 19.92% in assay [3] (30 nmol/kg s.c. every day).
With “semaglutide [Positive control group, reference compound]”, the “Blood glucose reduction rate (%)” value in assay [1] (30 nmol/kg single dose) was found to be 67.18%. The “Blood glucose level after glucose loading” value in assay [1] (30 nmol/kg single dose) is on record as 5.58 ± 1.55**^ mmol/L. Also, the “Fasting blood glucose level” value in assay [1] is reported as 3.78 ± 1.28 mmol/L. Besides, the “Fasting blood glucose (mmol/L) before the last administration” value in assay [2] (30 nmol/kg s.c. daily, 23 days) amounted to 4.48 ± 0.84 mmol/L; in assay [3] (10 nmol/kg s.c. daily), 5.54 ± 1.11 mmol/L; in assay [3] (30 nmol/kg s.c. daily), 5.56 ± 0.91 mmol/L. The compound further showed a Weight decreasing rate in assay [2] of 20.9%. Further, in assay [2] (23 days, 30 nmol/kg s.c. daily), the “Examination of liver pathological section” value was “mild to moderate lesions”. In assay [2] (30 nmol/kg s.c. daily), the “TC (total cholesterol)” value is 3.97 ± 0.52^Δ mmol/L. In assay [2] (30 nmol/kg s.c. daily), the “TG (triglycerides)” value is 0.90 ± 0.13**^ΔΔ mmol/L. Further, the 72-h food intake in assay [2] (setting [5]) turned out to be 3.50 g/mouse; in assay [2] (setting [6]), 5.80 g/mouse; in assay [2] (setting [7]), 5.40 g/mouse; in assay [2] (setting [8]) it was 5.50 g/mouse. Also, the “Weight decreasing rate by the last administration” value in assay [4] was found to be 12.9%. Also, the “Blood glucose level (mmol/L) 0.5 h after glucose loading” value in assay [3] (10 nmol/kg s.c. daily) was 7.06 ± 1.15 mmol/L; in assay [3] (30 nmol/kg s.c. daily), 8.20 ± 0.87 mmol/L. Besides, the figures for the “Glycemic load reduction rate” value in assay [3] (10 nmol/kg s.c. daily) and in assay [3] (30 nmol/kg s.c. daily) were 32.89 and 22.05, respectively. The “Reduction rate of weight without fasting on day 21 compared to day 0” value in assay [3] (10 nmol/kg s.c. every day) is 15.28%; in assay [3] (30 nmol/kg s.c. every day) it was 18.83%.

The EC50 is the midpoint of the concentration-response curve.
